Each compound was assayed against T1, Human ATX protein (Homo sapiens, UniProt Q13822) (assay: ATX biochemical FRET assay with FS-3 substrate). Details: FS-3 2 μM, ATX 1.0 μg/mL, room temperature 2 hours, fluorescence 485/538 nm.
T1 construct: made in house
Description: ATX (Autotaxin) is a 125 KDa glycoprotein with lysophospholipase D (LPLD) activity that generates the bioactive lipid lysophosphatidic acid (LPA) from lysophosphatidylcholine (LPC). The ATX biochemical assay utilizes a FRET (fluorescence resonance energy transfer) technology platform. The fluorescence signal of FRET substrate FS-3 is quenched due to intra-molecular FRET of a fluorophore to a non-fluorescing quencher (Ferguson, C. G., et al., Org Lett. 2006 May 11; 8(10): 2023-2026, which is incorporated by reference in its entirety). ATX catalyzes the hydrolysis of the substrate which separates the dabsyl quencher from the fluorescein reporter, which becomes fluorescent. The reaction is monitored by a SpectraMax M5 (Molecular Devices, Sunnyvale, Calif.) with at excitation wavelength 485 nm and emission wavelength […].
Fatty acid free-BSA (Sigma A8806): 10 mg/ml, in H2O, stored at 4° C.
2×ATX assay buffer: 100 mM Tris, 280 mM NaCl, 10 mM KCl, 2 mM CaCl2, 2 mM MgCl2, pH 7.4.
Human ATX protein: expressed and purified in house. Stored at −80° C.
Substrate FS-3 (Echelon, L-2000): 100 μg in 77.74 μL H2O (1 mM stock), stored at −20° C.
384-well flat bottom plates—Corning #3575.
Compound dilution—All compounds were provided at 10 mM in 100% DMSO. In the first well, 2 μL of 10 mM compound was added to 78 μL of DMSO (1:40 dilution). In subsequent wells 3-fold dilution (total 10 dilutions) were performed.
1×ATX assay buffer was made up with a final concentration of 1 mg/mL fatty acid free-BSA using 2×ATX assay buffer, 10 mg/ml fatty acid free-BSA and ddH2O.
ATX protein was diluted with 1×ATX assay buffer to a concentration of 1.32 μg/mL (1.32×). 38 μL was added per well to the assay plate. The final concentration of ATX in the reaction as 1.0 μg/mL.
2 μL per well of compounds was transferred to provide the desired concentration. The plate was centrifuged, then incubated at room temperature for 30 minutes on the shaker.
FS-3 was diluted with 1×ATX assay buffer to a concentration of FS-3 of 10 μM (5×). Then, 10 μL was added per well to the assay plate. The final concentration of FS-3 in the reaction was 2 μM. The plate was centrifuged. The plate was kept shaking at room temperature for 2 hours. Because FS-3 substrate is light sensitive, plates were kept covered and protected from light.
Fluorescence was measured using SpectraMax M5 (excitation at 485 nm/emission at 538 nm, top read).

| Compound | IC50 [nM] |
| --- | --- |
| O=C(O)C1CC2CCC(C1)N2C(=O)Cc1ccc2c(C(F)(F)F)c(O[C@H]3CC[C@@H](C(F)(F)F)CC3)ccc2c1 (relative stereo) [Example 117, 2-(2-(5-(trifluoromethyl)-6-((cis-4-(trifluoromethyl)cyclohexyl)oxy)naphthalene-2-yl)acetyl)-2-azabicyclo[1.2.3]octane-7-carboxylic acid] | ≤ 500 |
| CC(c1ccc2c(C(F)(F)F)c(O[C@H]3CC[C@@H](C(F)(F)F)CC3)ccc2c1)N1C2CCC1CC(C(=O)O)C2 (relative stereo) [Example 122, 8-(1-(5-(trifluoromethyl)-6-((cis-4-(trifluoromethyl)cyclohexyl)oxy)-naphthalene-2-yl)ethyl)-8-azabicyclo[3.2.1]octane-3-carboxylic acid] | ≤ 100 |
| CC1(C)C2CCC1(C(=O)O)C(NCc1ccc3c(C(F)(F)F)c(O[C@H]4CC[C@@H](C(F)(F)F)CC4)ccc3c1)C2 (relative stereo) [Example 123, 3-(((5-(trifluoromethyl)-6-((cis-4-(trifluoromethyl)cyclohexyl)oxy)naphthalen-2-yl)methyl)amino)-7,7-dimethylbicyclo[2.2.1]heptane-4-carboxylic acid] | ≤ 500 |
| CC(c1ccc2c(C(F)(F)F)c(O[C@H]3CC[C@@H](C)CC3)ccc2c1)N1C2CCC1CC(C(=O)O)C2 (relative stereo) [Example 124, 8-(1-(6-((cis-4-Methylcyclohexyl)oxy)-5-(trifluoromethyl)naphthalen-2-yl)ethyl)-8-azabicyclo[3.2.1]octane-3-carboxylic acid] | ≤ 100 |
| C[C@H]1CC[C@@H](Oc2ccc3cc(C(=O)N4C5CCCC4CC(C(=O)O)C5)ccc3c2C(F)(F)F)CC1 (relative stereo) [Example 125, 9-(6-((cis-4-Methylcyclohexyl)oxy)-5-(trifluoromethyl)-2-naphthoyl)-9-azabicyclo[3.3.1]nonane-3-carboxylic acid] | ≤ 250 |
| C[C@H]1CC[C@@H](Oc2ccc3cc(CN4C5COCC4CC(C(=O)O)C5)ccc3c2C(F)(F)F)CC1 (relative stereo) [Example 126, 9-((6-((cis-4-Methylcyclohexyl)oxy)-5-(trifluoromethyl)naphthalen-2-yl)methyl)-9-aza-7-oxa-bicyclo[3.3.1]nonane-3-carboxylic acid] | ≤ 250 |
| CCC(c1ccc2c(C(F)(F)F)c(O[C@H]3CC[C@@H](C)CC3)ccc2c1)N1C2CCC1CC(C(=O)O)C2 (relative stereo) [Example 127, 8-(1-(6-((cis-4-Methylcyclohexyl)oxy)-5-(trifluoromethyl)naphthalen-2-yl)propyl)-8-azabicyclo[3.2.1]octane-3-carboxylic acid] | ≤ 100 |
| CCC(c1ccc2c(C(F)(F)F)c(O[C@H]3CC[C@@H](C)CC3)ccc2c1)N1C2CCCC1CC(C(=O)O)C2 (relative stereo) [Example 128, 9-(1-(6-((cis-4-Methylcyclohexyl)oxy)-5-(trifluoromethyl)naphthalen-2-yl)propyl)-9-azabicyclo[3.3.1]nonane-3-carboxylic acid] | ≤ 100 |
| C[C@H]1CC[C@@H](Oc2ccc3cc(CN4C5CC(O)CC4CC(C(=O)O)C5)ccc3c2C(F)(F)F)CC1 (relative stereo) [Example 129, 9-((6-((cis-4-Methylcyclohexyl)oxy)-5-(trifluoromethyl)naphthalen-2-yl)methyl)-7-hydroxy-9-aza-bicyclo[3.3.1]nonane-3-carboxylic acid] | ≤ 500 |
| CC(c1ccc2c(C(F)F)c(O[C@H]3CC[C@@H](C)CC3)ccc2c1)N1C2CCCC1CC(C(=O)O)C2 (relative stereo) [Example 132, 9-(1-(5-(difluoromethyl)-6-((cis-4-methylcyclohexyl)oxy)naphthalen-2-yl)ethyl)-9-azabicyclo[3.3.1]nonane-3-carboxylic acid] | ≤ 100 |
| CC(c1ccc2c(C(F)F)c(O[C@H]3CC[C@@H](C)CC3)ccc2c1)N1C2CCC1CC(C(=O)O)C2 (relative stereo) [Example 133, 8-(1-(5-(difluoromethyl)-6-((cis-4-methylcyclohexyl)oxy)naphthalen-2-yl)ethyl)-8-azabicyclo[3.2.1]octane-3-carboxylic acid] | ≤ 100 |
| C[C@H]1CC[C@@H](Oc2ccc3cc(CN4C5CCC4CC(C(=O)O)C5)ccc3c2C(F)F)CC1 (relative stereo) [Example 134, 8-(1-(5-(difluoromethyl)-6-((cis-4-methylcyclohexyl)oxy)naphthalen-2-yl)methyl)-8-azabicyclo[3.2.1]octane-3-carboxylic acid] | ≤ 100 |
| CCC(c1ccc2c(C(F)F)c(O[C@H]3CC[C@@H](C)CC3)ccc2c1)N1C2CCCC1CC(C(=O)O)C2 (relative stereo) [Example 135, 9-(1-(5-(difluoromethyl)-6-((cis-4-methylcyclohexyl)oxy)naphthalen-2-yl)propyl)-9-azabicyclo[3.3.1]nonane-3-carboxylic acid] | ≤ 100 |
| O=C(O)C1CC12CN(Cc1ccc3c(C(F)(F)F)c(O[C@H]4CC[C@@H](C(F)(F)F)CC4)ccc3c1)C2 (relative stereo) [Example 149, 2-((5-(trifluoromethyl)-6-((cis-4-(trifluoromethyl)cyclohexyl)oxy)naphthalen-2-yl)methyl)-2-azaspiro[3.2]hexane-5-carboxylic acid] | ≤ 250 |
| O=C(O)C1CCCC2CCN(Cc3ccc4c(C(F)(F)F)c(O[C@H]5CC[C@@H](C(F)(F)F)CC5)ccc4c3)CC21 (relative stereo) [Example 150, N-((5-(trifluoromethyl)-6-((cis-4-(trifluoromethyl)cyclohexyl)oxy)naphthalen-2-yl)methyl)-decahydroisoquinoline-8-carboxylic acid] | ≤ 250 |
| O=C(O)C1CCCC(C2CN(Cc3ccc4c(C(F)(F)F)c(O[C@H]5CC[C@@H](C(F)(F)F)CC5)ccc4c3)C2)C1 (relative stereo) [Example 159, N-(5-trifluoromethyl-6-(cis-4-trifluoromethyl-cyclohexyloxy)-naphthalen-2-ylmethyl)-3-(azetidine-3-yl)-cyclohexane-1-carboxylic acid] | ≤ 500 |
| O=C(O)C1CC2CCC1N2Cc1ccc2c(C(F)(F)F)c(O[C@H]3CC[C@@H](C(F)(F)F)CC3)ccc2c1 (relative stereo) [Example 165, 7-(5-trifluoromethyl-6-(cis-4-trifluoromethyl-cyclohexyloxy)-naphthalen-2-ylmethyl)-7-azabicyclo[2.2.1]heptane-2-carboxylic acid] | ≤ 250 |
| O=C(O)C1CC2CC(O)CC(C1)N2Cc1ccc2c(C(F)(F)F)c(O[C@H]3CC[C@@H](C(F)(F)F)CC3)ccc2c1 (relative stereo) [Example 169, 9-(5-trifluoromethyl-6-(cis-4-trifluoromethyl-cyclohexyloxy)-naphthalen-2-ylmethyl)-7-hydroxy-9-azabicyclo[3.3.1]nonane-3-carboxylic acid] | ≤ 500 |
| O=C1CC2CC(C(=O)O)CC(C1)N2Cc1ccc2c(C(F)(F)F)c(O[C@H]3CC[C@@H](C(F)(F)F)CC3)ccc2c1 (relative stereo) [Example 170, 9-(5-trifluoromethyl-6-(cis-4-trifluoromethyl-cyclohexyloxy)-naphthalen-2-ylmethyl)-7-oxo-9-azabicyclo[3.3.1]nonane-3-carboxylic acid] | ≤ 500 |
| CC[C@H]1CC[C@@H](Oc2ccc3cc(CN4C5CCCC4CC(C(=O)O)C5)ccc3c2C(F)(F)F)CC1 (relative stereo) [Example 171, 9-((6-((cis-4-ethylcyclohexyl)oxy)-5-(trifluoromethyl)naphthalen-2-yl)methyl)-9-azabicyclo[3.3.1]nonane-3-carboxylic acid] | ≤ 100 |
| CC[C@H]1CC[C@@H](Oc2ccc3cc(CN4C5CCC4CC(C(=O)O)C5)ccc3c2C(F)(F)F)CC1 (relative stereo) [Example 172, 8-((6-((cis-4-ethylcyclohexyl)oxy)-5-(trifluoromethyl)naphthalen-2-yl)methyl)-8-azabicyclo[3.2.1]octane-3-carboxylic acid] | ≤ 250 |
| CC[C@H]1CC[C@@H](Oc2ccc3cc(C(C)N4C5CCCC4CC(C(=O)O)C5)ccc3c2C(F)(F)F)CC1 (relative stereo) [Example 175, 9-(1-(6-((cis-4-ethylcyclohexyl)oxy)-5-(trifluoromethyl)naphthalen-2-yl)ethyl)-9-azabicyclo[3.3.1]nonane-3-carboxylic acid] | ≤ 100 |

— US9944666B2, “Compounds that are S1P modulating agents and/or ATX modulating agents” (BIOGEN MA INC., priority 2012, dated 2018)
